Assay results from US8697739B2, “Bicyclic acetyl-CoA carboxylase inhibitors and uses thereof” (Novartis AG, priority 2010, dated 2014).

Biological target: T1, human acetyl-CoA carboxylase 2 (ACC2) (Homo sapiens, UniProt O00763)
T1 construct: The cDNA encoding amino acids 144 to 2458 of human acetyl-CoA carboxylase 2; made in house; host or cells: Sf9 insect cells (baculovirus, pFastBac1)
Experiment: Acetyl-CoA carboxylase enzyme assay (malonyl-CoA formation by LC/MS/MS)
Assay type: biochemical
Conditions: recombinant human ACC2 (aa 144-2458); read-out: IC50 ACC2
Method in brief: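 Malonyl-CoA formation was read by LC/MS/MS MRM against a [13C3]-malonyl-CoA internal standard, after acetic acid quench. The enzyme was baculovirus/Sf9-expressed human ACC2 residues 144–2458, given 15 minutes room-temperature compound preincubation in HEPES pH 7.5 buffer with MgCl2, citrate and DTT. Substrate solution held 50 μM acetyl-CoA, 120 μM ATP and 2 mM KHCO3.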

T1 sequence (O00763 144-2458): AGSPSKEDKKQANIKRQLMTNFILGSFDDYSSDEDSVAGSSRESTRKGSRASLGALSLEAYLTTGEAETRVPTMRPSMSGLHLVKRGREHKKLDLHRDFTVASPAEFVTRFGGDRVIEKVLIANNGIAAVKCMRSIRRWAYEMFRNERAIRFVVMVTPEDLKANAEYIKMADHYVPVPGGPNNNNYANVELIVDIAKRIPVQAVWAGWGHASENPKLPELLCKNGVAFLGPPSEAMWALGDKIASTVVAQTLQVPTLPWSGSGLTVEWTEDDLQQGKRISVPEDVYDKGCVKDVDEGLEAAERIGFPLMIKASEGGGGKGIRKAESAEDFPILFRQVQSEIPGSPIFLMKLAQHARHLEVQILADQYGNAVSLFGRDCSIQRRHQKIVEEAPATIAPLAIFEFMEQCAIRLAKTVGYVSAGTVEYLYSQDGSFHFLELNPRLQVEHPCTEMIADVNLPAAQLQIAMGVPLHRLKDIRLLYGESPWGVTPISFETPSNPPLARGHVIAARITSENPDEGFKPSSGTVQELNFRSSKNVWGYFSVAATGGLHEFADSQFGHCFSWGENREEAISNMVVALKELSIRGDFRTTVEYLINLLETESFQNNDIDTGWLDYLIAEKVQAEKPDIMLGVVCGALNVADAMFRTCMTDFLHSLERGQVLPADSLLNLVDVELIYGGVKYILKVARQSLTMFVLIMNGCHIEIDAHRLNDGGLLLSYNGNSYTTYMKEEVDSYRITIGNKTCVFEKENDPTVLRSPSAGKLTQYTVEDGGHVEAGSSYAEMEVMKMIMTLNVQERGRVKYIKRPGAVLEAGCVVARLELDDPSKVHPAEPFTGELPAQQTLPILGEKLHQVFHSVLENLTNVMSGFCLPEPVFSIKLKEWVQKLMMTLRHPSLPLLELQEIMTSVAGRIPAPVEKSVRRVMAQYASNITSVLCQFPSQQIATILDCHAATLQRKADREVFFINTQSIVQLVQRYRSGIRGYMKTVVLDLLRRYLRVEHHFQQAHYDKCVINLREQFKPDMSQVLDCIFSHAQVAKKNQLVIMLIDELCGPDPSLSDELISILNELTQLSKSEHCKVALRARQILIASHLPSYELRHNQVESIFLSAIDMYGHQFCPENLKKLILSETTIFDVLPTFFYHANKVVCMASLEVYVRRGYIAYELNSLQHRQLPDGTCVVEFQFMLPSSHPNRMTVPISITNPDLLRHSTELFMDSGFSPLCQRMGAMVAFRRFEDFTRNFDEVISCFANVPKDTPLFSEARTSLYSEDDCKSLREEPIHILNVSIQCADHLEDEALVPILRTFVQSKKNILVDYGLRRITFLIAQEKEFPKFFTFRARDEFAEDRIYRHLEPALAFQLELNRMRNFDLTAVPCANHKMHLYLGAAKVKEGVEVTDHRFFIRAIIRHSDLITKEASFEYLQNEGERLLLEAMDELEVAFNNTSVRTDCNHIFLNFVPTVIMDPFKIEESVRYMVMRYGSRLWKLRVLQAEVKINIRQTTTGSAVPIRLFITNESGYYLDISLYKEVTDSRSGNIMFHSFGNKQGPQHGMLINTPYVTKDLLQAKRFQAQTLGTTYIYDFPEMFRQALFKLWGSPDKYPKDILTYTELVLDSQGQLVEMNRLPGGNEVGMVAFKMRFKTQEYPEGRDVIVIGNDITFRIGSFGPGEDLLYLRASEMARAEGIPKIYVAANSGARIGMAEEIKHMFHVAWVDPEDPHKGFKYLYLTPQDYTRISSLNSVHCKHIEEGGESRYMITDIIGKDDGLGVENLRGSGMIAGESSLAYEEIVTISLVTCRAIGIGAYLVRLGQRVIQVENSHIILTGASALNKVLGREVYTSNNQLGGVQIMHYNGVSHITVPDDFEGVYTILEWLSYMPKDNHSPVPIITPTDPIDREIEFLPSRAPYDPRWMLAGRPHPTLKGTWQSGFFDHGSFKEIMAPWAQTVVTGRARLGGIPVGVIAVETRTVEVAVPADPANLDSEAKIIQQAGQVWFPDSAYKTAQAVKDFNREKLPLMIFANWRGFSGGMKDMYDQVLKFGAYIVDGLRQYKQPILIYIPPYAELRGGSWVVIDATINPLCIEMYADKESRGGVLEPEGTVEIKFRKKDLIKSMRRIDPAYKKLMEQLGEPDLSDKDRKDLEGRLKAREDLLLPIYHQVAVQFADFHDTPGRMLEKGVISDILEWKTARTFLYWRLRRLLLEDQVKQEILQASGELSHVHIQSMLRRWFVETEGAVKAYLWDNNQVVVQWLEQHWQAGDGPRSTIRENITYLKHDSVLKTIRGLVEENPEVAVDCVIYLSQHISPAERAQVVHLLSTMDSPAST

Question: For COC(=O)N1CCNc2ncc(S(=O)(=O)N[C@H]3CC[C@H](C(=O)N[C@H](C)c4ccc(F)cc4)CC3)cc21 [Example 222, methyl 7-(N-((1R,4r)-4-((R)-1-(4-fluorophenyl)ethylcarbamoyl)cyclohexyl)sulfamoyl)-3,4-dihydropyrido[3,2-b]pyrazine-1(2H)-carboxylate], which IC50 is on record?
Answer: 40 nM

Question: How did the IC50 turn out when C[C@@H](NC(=O)[C@H]1CC[C@H](NS(=O)(=O)c2ccc3c(c2)C(=O)NCC3)CC1)c1ccc(F)cc1 [Example 223, (1r,4R)-N-((R)-1-(4-fluorophenyl)ethyl)-4-(1-oxo-1,2,3,4-tetrahydroisoquinoline-7-sulfonamido)cyclohexanecarboxamide] was run?
Answer: 205 nM

Question: COC(=O)C1CCc2ccc(S(=O)(=O)N[C@H]3CC[C@H](C(=O)N[C@H](C)c4ccc(F)cc4)CC3)cc2N1C (stereo partly drawn) [Example 224, methyl 7-(N-((1R,4r)-4-((R)-1-(4-fluorophenyl)ethylcarbamoyl)cyclohexyl)sulfamoyl)-1-methyl-1,2,3,4-tetrahydroquinoline-2-carboxylate] was tested. Which IC50 did it give?
Answer: 60 nM

Question: How did the IC50 turn out when C[C@@H](NC(=O)[C@H]1CC[C@H](NS(=O)(=O)c2ccc3c(c2)N(C)C(C(=O)O)CC3)CC1)c1ccc(F)cc1 (stereo partly drawn) [Example 225, 7-(N-((1R,4r)-4-((R)-1-(4-fluorophenyl)ethylcarbamoyl)cyclohexyl)sulfamoyl)-1-methyl-1,2,3,4-tetrahydroquinoline-2-carboxylic acid] was run?
Answer: 85 nM

Question: Which IC50 does the source give for C[C@@H](NC(=O)[C@H]1CC[C@H](NS(=O)(=O)c2ccc3c(c2)Cc2ccccc2-3)CC1)c1ccc(F)cc1 [Example 226, (1r,4R)-4-(9H-fluorene-2-sulfonamido)-N-((R)-1-(4-fluorophenyl)ethyl)cyclohexanecarboxamide] here?
Answer: 10 nM

Question: With Cc1cc(-c2ccc3cc(S(=O)(=O)N[C@H]4CC[C@H](C(=O)N[C@H](C)c5ccc(F)cc5)CC4)ccc3n2)cc(C)n1 [Example 227, (1r,4R)-4-(2-(2,6-dimethylpyridin-4-yl)quinoline-6-sulfonamido)-N-((R)-1-(4-fluorophenyl)ethyl)cyclohexanecarboxamide] as the compound, how does the IC50 read?
Answer: 15 nM

Question: With CCOc1ccc2cc(S(=O)(=O)N[C@H]3CC[C@H](C(=O)N[C@H](CC(=O)O)c4ccccc4)CC3)ccc2n1 [Example 228, (R)-3-((1r,4R)-4-(2-ethoxyquinoline-6-sulfonamido)cyclohexanecarboxamido)-3-phenylpropanoic acid] as the compound, how does the IC50 read?
Answer: 213 nM

Question: For Cc1cc(-c2ccc3cc(S(=O)(=O)N[C@H]4CC[C@H](C(=O)N[C@H](C)c5ccc(F)cc5)CC4)ccc3n2)ccn1 [Example 229, (1r,4R)-N-((R)-1-(4-fluorophenyl)ethyl)-4-(2-(2-methylpyridin-4-yl)quinoline-6-sulfonamido)cyclohexanecarboxamide], which IC50 is on record?
Answer: 20 nM

Question: With C[C@@H](NC(=O)[C@H]1CC[C@H](NS(=O)(=O)c2ccc3nc(-c4ccccn4)ccc3c2)CC1)c1ccc(F)cc1 [Example 230, (1r,4R)-N-((R)-1-(4-fluorophenyl)ethyl)-4-(2-(pyridin-2-yl)quinoline-6-sulfonamido)cyclohexanecarboxamide] as the compound, how does the IC50 read?
Answer: 60 nM

Question: How did the IC50 turn out when CCOc1ccc2cc(S(=O)(=O)N[C@H]3CC[C@](C)(C(=O)N[C@H](C)c4ccc(F)cc4)CC3)ccc2n1 [Example 231, (1r,4R)-4-(2-ethoxyquinoline-6-sulfonamido)-N-((R)-1-(4-fluorophenyl)ethyl)-1-methylcyclohexanecarboxamide] was run?
Answer: 10 nM

Question: Which IC50 does the source give for C[C@@H](NC(=O)[C@H]1CC[C@H](NS(=O)(=O)c2ccc3nc(N4CCN(C(=O)OC(C)(C)C)CC4)ccc3c2)CC1)c1ccc(F)cc1 [Example 232, tert-butyl 4-(6-(N-((1R,4r)-4-((R)-1-(4-fluorophenyl)ethylcarbamoyl)cyclohexyl)sulfamoyl)quinolin-2-yl)piperazine-1-carboxylate] here?
Answer: 765 nM

Question: C[C@@H](NC(=O)[C@H]1CC[C@H](NS(=O)(=O)c2cnc3c(c2)N(C(=O)COCc2ccccc2)CCN3)CC1)c1ccc(F)cc1 [Example 233, (1r,4R)-4-(1-(2-(benzyloxy)acetyl)-1,2,3,4-tetrahydropyrido[3,2-b]pyrazine-7-sulfonamido)-N-((R)-1-(4-fluorophenyl)ethyl)cyclohexanecarboxamide] was tested. Which IC50 did it give?
Answer: 965 nM

Question: With CCOc1ccc2cc(S(=O)(=O)N[C@H]3CC[C@H](C(=O)N4CCNC[C@@H]4c4ccccc4)CC3)ccc2n1 [Example 234, 2-ethoxy-N-((1S,4r)-4-((S)-2-phenylpiperazine-1-carbonyl)cyclohexyl)quinoline-6-sulfonamide] as the compound, how does the IC50 read?
Answer: 20 nM

Question: For CCOc1ccc2cc(S(=O)(=O)N[C@H]3CC[C@H](C(=O)N4CCN(C(=O)OC(C)(C)C)C[C@@H]4C(=O)OC)CC3)ccc2n1 [Example 235, (R)-1-tert-butyl 3-methyl 4-((1r,4R)-4-(2-ethoxyquinoline-6-sulfonamido)cyclohexanecarbonyl)piperazine-1,3-dicarboxylate], which IC50 is on record?
Answer: 95 nM

Question: How did the IC50 turn out when CCOc1ccc2cc(S(=O)(=O)N[C@H]3CC[C@H](C(=O)N4CCNC[C@@H]4C(=O)OC)CC3)ccc2n1 [Example 236, (R)-methyl 1-((1r,4R)-4-(2-ethoxyquinoline-6-sulfonamido)cyclohexanecarbonyl)piperazine-2-carboxylate] was run?
Answer: 385 nM

Question: How did the IC50 turn out when C[C@@H](NC(=O)[C@H]1CC[C@H](NS(=O)(=O)c2ccc3nc(N4CCNC5(CC5)C4)ccc3c2)CC1)c1ccc(F)cc1 [Example 237, (1r,4R)-4-(2-(4,7-diazaspiro[2.5]octan-7-yl)quinoline-6-sulfonamido)-N-((R)-1-(4-fluorophenyl)ethyl)cyclohexanecarboxamide] was run?
Answer: 85 nM

Question: Which IC50 does the source give for C[C@@H](NC(=O)[C@H]1CC[C@H](NS(=O)(=O)c2ccc3nc(N4CCNCC4)ccc3c2)CC1)c1ccc(F)cc1 [Example 238, (1r,4R)-N-((R)-1-(4-fluorophenyl)ethyl)-4-(2-(piperazin-1-yl)quinoline-6-sulfonamido)cyclohexanecarboxamide] here?
Answer: 65 nM

Question: CCNC(=O)N1CCNc2ccc(S(=O)(=O)N[C@H]3CC[C@H](C(=O)N[C@H](C)c4ccc(F)cc4)CC3)cc21 [Example 239, N-ethyl-7-(N-((1R,4r)-4-((R)-1-(4-fluorophenyl)ethylcarbamoyl)cyclohexyl)sulfamoyl)-3,4-dihydroquinoxaline-1(2H)-carboxamide] was tested. Which IC50 did it give?
Answer: 130 nM

Question: CC(C)(C)OC(=O)N1CCN(C(=O)[C@H]2CC[C@H](NS(=O)(=O)c3ccc4c(c3)Cc3ccccc3-4)CC2)[C@@H](c2ccccc2)C1 [Example 240, (S)-tert-butyl 4-((1r,4S)-4-(9H-fluorene-2-sulfonamido)cyclohexanecarbonyl)-3-phenylpiperazine-1-carboxylate] was tested. Which IC50 did it give?
Answer: < 10 nM

Question: How did the IC50 turn out when CC(C)(C)OC(=O)N1CCN(C(=O)[C@H]2CC[C@H](NS(=O)(=O)c3ccc4c(c3)CCC4)CC2)[C@@H](c2ccccc2)C1 [Example 241, (S)-tert-butyl 4-((1r,4S)-4-(2,3-dihydro-1H-indene-5-sulfonamido)cyclohexanecarbonyl)-3-phenylpiperazine-1-carboxylate] was run?
Answer: 25 nM

Question: How did the IC50 turn out when COC(=O)C1CN(c2ccc3cc(S(=O)(=O)N[C@H]4CC[C@H](C(=O)N[C@H](C)c5ccc(F)cc5)CC4)ccc3n2)CCN1 (stereo partly drawn) [Example 242, methyl 4-(6-(N-((1R,4r)-4-((R)-1-(4-fluorophenyl)ethylcarbamoyl)cyclohexyl)sulfamoyl)quinolin-2-yl)piperazine-2-carboxylate] was run?
Answer: 195 nM

Question: Which IC50 does the source give for C[C@@H](NC(=O)[C@H]1CC[C@H](NS(=O)(=O)c2ccc3oc4ccccc4c3c2)CC1)c1ccc(F)cc1 [Example 243, (1r,4R)-4-(dibenzo[b,d]furan-2-sulfonamido)-N-((R)-1-(4-fluorophenyl)ethyl)cyclohexanecarboxamide] here?
Answer: 15 nM

Question: For O=C([C@H]1CC[C@H](NS(=O)(=O)c2ccc3c(c2)Cc2ccccc2-3)CC1)N1CCNC[C@@H]1c1ccccc1 [Example 244, N-((1S,4r)-4-((S)-2-phenylpiperazine-1-carbonyl)cyclohexyl)-9H-fluorene-2-sulfonamide], which IC50 is on record?
Answer: < 10 nM

Question: For O=C([C@H]1CC[C@H](NS(=O)(=O)c2ccc3c(c2)CCC3)CC1)N1CCNC[C@@H]1c1ccccc1 [Example 245, N-((1S,4r)-4-((S)-2-phenylpiperazine-1-carbonyl)cyclohexyl)-2,3-dihydro-1H-indene-5-sulfonamide], which IC50 is on record?
Answer: 35 nM

Question: CCOc1ccc2cc(S(=O)(=O)N[C@H]3CC[C@H](C(=O)N4CCNC[C@@H]4C(=O)O)CC3)ccc2n1 [Example 246, (R)-1-((1r,4R)-4-(2-ethoxyquinoline-6-sulfonamido)cyclohexanecarbonyl)piperazine-2-carboxylic acid] was tested. Which IC50 did it give?
Answer: > 35000 nM

Question: For C[C@@H](NC(=O)[C@H]1CC[C@H](NS(=O)(=O)c2ccc3nc(C#CCN4CCNCC4)ccc3c2)CC1)c1ccc(F)cc1 [Example 247, (1r,4R)-N-((R)-1-(4-fluorophenyl)ethyl)-4-(2-(3-(piperazin-1-yl)prop-1-ynyl)quinoline-6-sulfonamido)cyclohexanecarboxamide], which IC50 is on record?
Answer: 30 nM

Question: How did the IC50 turn out when C[C@@H](NC(=O)[C@H]1CC[C@H](NS(=O)(=O)c2ccc3nc(N4CCNC(C(F)(F)F)C4)ccc3c2)CC1)c1ccc(F)cc1 (stereo partly drawn) [Example 248, (1r,4R)-N-((R)-1-(4-fluorophenyl)ethyl)-4-(2-(3-(trifluoromethyl)piperazin-1-yl)quinoline-6-sulfonamido)cyclohexanecarboxamide] was run?
Answer: 210 nM

Question: With C[C@@H](NC(=O)[C@H]1CC[C@H](NS(=O)(=O)c2ccc3nc(-c4cccc(C(=O)O)c4)ccc3c2)CC1)c1ccc(F)cc1 [Example 249, 3-(6-(N-((1R,4r)-4-((R)-1-(4-fluorophenyl)ethylcarbamoyl)cyclohexyl)sulfamoyl)quinolin-2-yl)benzoic acid] as the compound, how does the IC50 read?
Answer: 10 nM
